Reference: patent US20260102415A1, “COMPOSITIONS COMPRISING PRODRUGS OF HYDROXAMATE-BASED COMPOUNDS AND METHODS OF MAKING AND USING SAME” (Duke University, priority 2022, published 2026)
In brackets after ≈: the same amount, converted by molar mass.

Legend:
[1] = system: Acinetobacter baumannii (ATCC 19606); assay: Acinetobacter baumannii sepsis model in mice (survival); type: in vivo; settings: CD-1 mice; for overall survival: separate experiment comparing prodrug with parent compound; for mice surviving during treatment and post-treatment observation periods: dose response study
Procedure: A mice model was created to test the efficacy of LPC-233-Phos-Pro in an Acinetobacter baumannii sepsis model.
Method: Overnight culture of A. baumannii 19606 was inoculated into 50 mL fresh LB with 1:100 dilution. The culture was incubated at 37° C. with vigorous shaking until OD600 reached ˜0.5. The bacteria were harvested, washed, and re-suspended in PBS pH 7.4 buffer. Each CD-1 mouse at the age of 6-7 weeks was injected with about […] Acinetobacter baumannii (ATCC 19606) in a volume of 200 μL intraperitoneally. There were ten mice in each group (five male and five female). About 2 hours post infection, 200 μL of vehicle (5% Captisol dissolved in saline), or LPC-233-Phos-Pro in 5% Captisol at specified concentrations were injected intraperitoneally. 12 hours later, 200 μL of vehicle control or LPC-233-Phos-Pro solutions at desired concentrations were administrated via intraperitoneal injections every 12 hours (Q12H) for a total of ten IP injections. The mice were monitored for an additional 10 days and the percentages of survival were recorded. The same procedure was used in a separate experiment to compare the efficacy of LPC-233 and LPC-233-Phos-Pro.

[2] = Vehicle (Captisol or beta-cyclodextrin) concentration needed to formulate the 100 mg/kg dose; type: physicochemical; settings: dose level 100 mg/kg
Procedure: LPC-233 required 30-40% Captisol or beta-cyclodextrin to reach the dose level of 100 mg/kg and beyond. These concentrations of vehicle caused vehicle-related side effects and cannot be used in clinical formulations.

[3] = Maximum solubility in 5% Captisol by UV-Vis spectroscopy; type: physicochemical; settings: aqueous with cosolvent or surfactant or cyclodextrin, thermodynamic from solid, absorption at 290 nm, triplicate, averaged
Procedure: Maximum solubility of LPC233-phosphate-ProDrug was determined using UV-Vis spectroscopy. First, a sample of LPC-233-Phos-Pro in 5% Captisol was prepared at 1 mg/mL by dissolving 0.7 mg of compound in 700 μL of 5% Captisol and sonicating for 30 minutes. The sample was then serial diluted 2-fold to generate standard solutions ranging from 0.0625-1 mg/mL. The absorption of each sample at 290 nm was determined via nanodrop, and the values were plotted to generate a linear standard curve of y=3.0336x+0.09 with r^2=0.998 (v=Abs290 nm, x=[drug]mg/mL). Next, a sample of LPC-233-Phos-Pro was prepared based on an assumed concentration of 300 mg/mL in 5% Captisol and allowed to sonicate for 45 minutes. The sample was then vortexed and centrifuged to pellet any undissolved compound. The supernatant was removed and diluted an initial 30× to a theoretical max concentration of 10 mg/mL. From here, the solution was serial diluted 2-fold up to 256×. The absorption of each dilution at 290 nm was measured via nanodrop and values were plotted to the standard curve. These preparations and measurements were performed in triplicate and averaged. The final maximum solubility of LPC-233-Phos-Pro in 5% Captisol was determined to be ˜260±6 mg/mL. […]

[4] = Maximum Tolerated 5-day Repeat dose in male CD-1 mice; type: in vivo; settings: 250 mg/kg/Q12H (500 mg/kg/day) IP over 5 days, 5% Captisol
Procedure: Additionally, the Maximum Tolerated 5-day Repeat dose of LPC-233-Phos-Pro was tested in male CD-1 mice (n=3). LPC-233-Phos-Pro was prepared in 5% Captisol and 200 μL of solution was administered via IP injection every 12 hours (Q12H) at doses of 250 mg/kg/Q12H (500 mg/kg/day) over the course of 5 days. The mice were weighed daily to monitor animal survival and weight loss.

Row | Structure (SMILES) | overall survival ([1]; 100 mg/kg Q12H IP) | Captisol or beta-cyclodextrin concentration required to reach the dose level of 100 mg/kg [2] | solubility at 45 min [3] | mice surviving during treatment and post-treatment observation periods ([1]; 30 mg/kg Q12H IP) | mice surviving during treatment and post-treatment observation periods ([1]; 100 mg/kg Q12H IP) | fitted ED50 (survival) ([1]; IP infection with A. baumannii 19606, IP dosing Q12H, ten injections, in 5% Captisol, dose response study 10, 30, 100 mg/kg) | animal survival [4] | weight loss [4]
1 | C[C@@](O)(C(F)F)[C@H](NC(=O)c1ccc(C#CC#CC2CC2)cc1)C(=O)NO [LPC-233, reference compound] | 70% | 30-40% | ~20 mg/mL (≈ 53.1 mM) | – | – | – | – | –
2 | C[C@@](O)(C(F)F)[C@H](NC(=O)c1ccc(C#CC#CC2CC2)cc1)C(=O)NOP(=O)([O-])[O-].[Na+].[Na+] [LPC-233-Phos-Pro] | 100% | 5% | ~260 mg/mL | 90% | all mice | 5.5 mg/kg Q12H | All mice survived | < 10 % of initial body weight
